Results from patent publication US20240018136A1, “CDK Inhibitors And Their Use As Pharmaceuticals” (Prelude Therapeutics, Incorporated, priority 2022, published 2024).

Columns and labels:
CDK4/Cyclin D1 = target: T1, CDK4/Cyclin D1 (Homo sapiens, UniProt P11802); assay: CDK4/CyclinD1 enzymatic activity assay (TR-FRET); assay type: biochemical; conditions: ATP 2 mM final, read-out: CDK4_D1 IC50
T1 construct: purchased ProQinase; host or cells: insect cell
Experimental: CDK4/CyclinD1 Enzymatic Activity Assay
(§1) The inhibitory activity of compounds was evaluated in vitro using TR-FRET assay with white 384-well low volume microplate (Greiner Bio-One). CDK4/Cyclin D1 catalyzed phosphorylation of peptide in the presence and absence of compounds was measured and used in IC5 determination. Recombinant protein complex CDK4/Cyclin D1, expressed from insect cell, was purchased from ProQinase. Testing compounds were dissolved in DMSO at 1 mM and tested in 9-dose IC50 mode. The reaction mixture was prepared by mixing CDK4/CyclinD1 (1 nM final), ULight-4E-BP1 (100 nM final, Perkinelmer, TRF0128-D), and ATP (2 mM final) in assay buffer (20 mM of HEPES pH 7.4, 1 mM of EGTA, 0.05% BSA, 0.005% Tween 20, and 1 mM TCEP). The compound of interest in DMSO was added to each well in 3-fold serial dilution by dispenser (TECAN D300E) to make a 9.9 μL of reaction mixture. After 20 minutes preincubation at room temperature, 0.1 μL MgCl2 (10 mM final) was added to initiate the reaction. Following a 45 minute incubation at 37° C., the reaction was stopped by addition of 2 μL of quenching buffer consisting of Lance detection buffer (Perkinelmer CR97-100C), LANCE Ultra Europium-anti-P-4E-BP1 (Perkinelmer, TRF0216-D), EDTA, and incubate at room temperature for an additional 60 minutes in the dark. The reaction signal was measured by Envision multimode plate reader (PerkinElmer, 2102-0010). IC50 values were determined by fitting the data to the standard 4 parameters with Hill Slope using GraphPad Prism software.

CDK2/Cyclin E2 = CDK2/Cyclin E2 (Homo sapiens, UniProt P24941); assay: CDK2/CyclinE2 enzymatic activity assay (TR-FRET); assay type: biochemical; conditions: ATP 1 mM final, read-out: CDK2_E1 IC50
Experimental: CDK2/CyclinE2 Enzymatic Activity Assay
as §1, with “Bio-One). CDK2/Cyclin E2” for “Bio-One). CDK4/Cyclin D1”, “in IC50” for “in IC5”, “complex CDK2/Cyclin E2,” for “complex CDK4/Cyclin D1,”, “mixing CDK2/CyclinE2” for “mixing CDK4/CyclinD1”, “ULight-4E-BP1 (50” for “ULight-4E-BP1 (100”, “ATP (1” for “ATP (2”

OVCAR3 p-RB = assay: pRB ICW assay in OVCAR3 cells; assay type: cell-based; conditions: Homo sapiens, OVCAR-3, incubated with compound for 2 hours
Experimental: pRB ICW Assay in OVCAR3 Cells
OVCAR3 cells were maintained in RPMI (Corning, Catalog #: 10-040-CV) supplemented with 10% v/v FBS (Gibco, Catalog #: 26140-079), 1% v/v Penicillin Streptomycin (Gibco, Catalog #15140-122.) OVCAR3 cells grown at log phase were trypsinized, counted, and resuspended in fresh medium to reach a final density of 6.7e4 cells/mL and 75 μL of culture were dispensed into a 384-well plate (Falcon, cat #353962) using Multidrop Combi dispenser (Thermo Scientific). The next day, compounds were dispensed as a 9-point, ½ log serial dilution using a Tecan digital dispenser (D300e), and cells were incubated with compound for 2 hours in a humidified incubator at 37° C. A reference compound at a final concentration of 10 μM was used as a control for maximum inhibition. Each compound was tested in duplicates in each experiment. At the end of the incubation, 25 μL of 16% paraformaldehyde (Electron Microscopy, cat #15710) was slowly added to each well and the plate was incubated at room temperature (RT) for 30 minutes to fix cells. Cells were then permeabilized by incubating with 50 μL/well of wash buffer (lx PBS with 0.1% Triton X-100) 5×5 minutes, followed by 1 hour blocking with 30 μL/well of Odyssey blocking buffer (Li-COR, cat #927-40000), all at RT. Anti-phosphor RB antibody (Cell signaling 8516S) was diluted 1:1000 in Odyssey blocking buffer and 20 μL was added to all wells and incubated overnight in 4° C. with gently rocking. The next day, cells were washed 5×5 min with 50 μL/well of wash buffer, followed with 1 hour incubation with secondary antibody and DRAQ5 diluted in Odyssey blocking buffer (1:500 dilution for secondary antibody and 1:2000 dilution for DRAQ5), 5×5 min washes, and one last wash with water. Plates were dried in 37° C. oven for 5 min and scanned using Li-COR Odyssey CLx imaging system to acquire intensities at 700 and 800 nm channels.

T1 sequence (P11802 whole entry): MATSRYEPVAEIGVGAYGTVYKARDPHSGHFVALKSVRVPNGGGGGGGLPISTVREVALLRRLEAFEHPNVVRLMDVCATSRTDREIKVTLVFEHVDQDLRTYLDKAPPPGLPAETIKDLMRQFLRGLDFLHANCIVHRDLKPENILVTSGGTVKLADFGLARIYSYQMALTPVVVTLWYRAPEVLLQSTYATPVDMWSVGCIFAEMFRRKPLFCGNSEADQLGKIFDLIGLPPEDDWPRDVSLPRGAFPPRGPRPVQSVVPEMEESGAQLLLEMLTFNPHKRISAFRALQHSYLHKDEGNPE
T1 sequence (P24385 whole entry partner): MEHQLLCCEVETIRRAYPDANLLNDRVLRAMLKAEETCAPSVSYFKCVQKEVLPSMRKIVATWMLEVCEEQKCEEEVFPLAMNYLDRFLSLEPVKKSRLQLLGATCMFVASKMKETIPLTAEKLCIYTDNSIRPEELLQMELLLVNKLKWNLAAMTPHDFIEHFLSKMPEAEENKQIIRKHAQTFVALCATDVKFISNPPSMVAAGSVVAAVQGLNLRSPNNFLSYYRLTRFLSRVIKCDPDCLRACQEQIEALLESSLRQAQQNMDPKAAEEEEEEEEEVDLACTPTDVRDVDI

SMILES | IC50 (CDK4/Cyclin D1) [nM] | IC50 (CDK2/Cyclin E2) [nM] | IC50 (OVCAR3 p-RB) [nM]
CC(O)c1ncc(-c2nc(N[C@H]3CCN(S(=O)(=O)c4cnn(C)c4)C[C@H]3C)ncc2C(F)(F)F)s1 (stereo partly drawn) [Example 102, 1-(5-(2-(((3R,4S)-3-methyl-1-((1-methyl-1H-pyrazol-4-yl)sulfonyl)piperidin-4-yl)amino)-5-(trifluoromethyl)pyrimidin-4-yl)thiazol-2-yl)ethan-1-ol] | 100 to 1000 | ≤ 100 | 100 to 1000
COC(=O)N(C)Cc1ccc(-c2ncc(-c3nc(NC4CCN(S(C)(=O)=O)CC4)ncc3C(F)(F)F)s2)c(C)c1 [Example 14, methyl N-methyl-N-[[3-methyl-4-[5-[2-[(1-methylsulfonylpiperidin-4-yl)amino]-5-(trifluoromethyl)pyrimidin-4-yl]-1,3-thiazol-2-yl]phenyl]methyl]carbamate] | 100 to 1000 | ≤ 100 | > 1000
C[C@@H]1CN(S(=O)(=O)c2cn(C)cn2)CC[C@@H]1Nc1ncc(C(F)(F)F)c(-c2cnc(CC(C)(C)O)s2)n1 [Example 72, 2-methyl-1-(5-(2-(((3R,4S)-3-methyl-1-((1-methyl-1H-imidazol-4-yl)sulfonyl)piperidin-4-yl)amino)-5-(trifluoromethyl)pyrimidin-4-yl)thiazol-2-yl)propan-2-ol] | 100 to 1000 | ≤ 100 | 100 to 1000
Cn1cc(S(=O)(=O)N2CCC(Nc3ncc(C(F)(F)F)c(-c4cnc(CC(C)(C)O)s4)n3)CC2)cn1 [Example 67, 2-Methyl-1-(5-(2-((1-((1-methyl-1H-pyrazol-4-yl)sulfonyl)piperidin-4-yl)amino)-5-(trifluoromethyl)pyrimidin-4-yl)thiazol-2-yl)propan-2-ol] | ≤ 100 | ≤ 100 | ≤ 100
CC(O)c1ncc(-c2nc(N[C@H]3CCN(S(=O)(=O)c4cnc(N)s4)C[C@H]3C)ncc2C(F)(F)F)s1 (stereo partly drawn) [Example 103, 1-(5-(2-(((3R,4S)-1-((2-aminothiazol-5-yl)sulfonyl)-3-methylpiperidin-4-yl)amino)-5-(trifluoromethyl)pyrimidin-4-yl)thiazol-2-yl)ethan-1-ol] | 100 to 1000 | ≤ 100 | > 1000
CN(c1ncc(-c2nc(NC3CCN(S(C)(=O)=O)CC3)ncc2C(F)(F)F)s1)[C@@H]1CCC[C@H]1O [Example 34, (1R,2R)-2-(methyl(5-(2-((1-(methylsulfonyl)piperidin-4-yl)amino)-5-(trifluoromethyl)pyrimidin-4-yl)thiazol-2-yl)amino)cyclopentan-1-ol] | ≤ 100 | ≤ 100 | 100 to 1000
CC(C)(O)Cc1ncc(-c2nc(NC3CCN(S(=O)(=O)c4cnn(CC#N)c4)CC3)ncc2C(F)(F)F)s1 [Example 77] | ≤ 100 | ≤ 100 | ≤ 100

Further lines, results first:

IC50 (CDK4/Cyclin D1) [nM] | IC50 (CDK2/Cyclin E2) [nM] | IC50 (OVCAR3 p-RB) [nM] | SMILES
100 to 1000 | ≤ 100 | 100 to 1000 | CS(=O)(=O)N1CCC(Nc2ncc(C(F)(F)F)c(-c3cnc(Cl)s3)n2)CC1 [Example 26, 4-(2-chlorothiazol-5-yl)-N-(1-(methylsulfonyl)piperidin-4-yl)-5-(trifluoromethyl) pyrimidin-2-amine]
≤ 100 | ≤ 100 | ≤ 100 | CC(O)C(C)Nc1ncc(-c2nc(NC3CCN(S(C)(=O)=O)CC3)ncc2C(F)(F)F)s1 (stereo not drawn) [Example 30, 3-[[5-[2-[(1-methylsulfonylpiperidin-4-yl)amino]-5-(trifluoromethyl)pyrimidin-4-yl]-1,3-thiazol-2-yl]amino]butan-2-ol]
≤ 100 | ≤ 100 | 100 to 1000 | CS(=O)(=O)N1CCC(Nc2ncc(C(F)(F)F)c(-c3cnc(NC4CC4)s3)n2)CC1 [Example 36, N-Cyclopropyl-5-[2-[(1-methylsulfonylpiperidin-4-yl)amino]-5-(trifluoromethyl)pyrimidin-4-yl]-1,3-thiazol-2-amine]
≤ 100 | ≤ 100 | ≤ 100 | CNc1ncc(-c2nc(NC3CCN(S(C)(=O)=O)CC3)ncc2C(F)(F)F)s1 [Example 28, N-methyl-5-[2-[(1-methylsulfonylpiperidin-4-yl)amino]-5-(trifluoromethyl)pyrimidin-4-yl]-1,3-thiazol-2-amine]
≤ 100 | ≤ 100 | 100 to 1000 | CC(C)Nc1ncc(-c2nc(NC3CCN(S(C)(=O)=O)CC3)ncc2C(F)(F)F)s1 [Example 41, 5-[2-[(1-Methylsulfonylpiperidin-4-yl)amino]-5-(trifluoromethyl)pyrimidin-4-yl]-N-propan-2-yl-1,3-thiazol-2-amine]
≤ 100 | ≤ 100 | 100 to 1000 | CN(C)c1ncc(-c2nc(NC3CCN(S(C)(=O)=O)CC3)ncc2C(F)(F)F)s1 [Example 29, N,N-dimethyl-5-[2-[(1-methylsulfonylpiperidin-4-yl)amino]-5-(trifluoromethyl)pyrimidin-4-yl]-1,3-thiazol-2-amine]
≤ 100 | ≤ 100 | 100 to 1000 | Cc1ncc(-c2nc(NC3CCN(S(=O)(=O)CCO)CC3)ncc2C(F)(F)F)s1 [Example 61, 2-[4-[[4-(2-methyl-1,3-thiazol-5-yl)-5-(trifluoromethyl)pyrimidin-2-yl]amino]piperidin-1-yl]sulfonylethanol]
≤ 100 | ≤ 100 | 100 to 1000 | CS(=O)(=O)N1CCC(Nc2ncc(C(F)(F)F)c(-c3cnc(-c4ccc(CO)cc4)s3)n2)CC1 [Example 6, [4-[5-[2-[(1-Methylsulfonylpiperidin-4-yl)amino]-5-(trifluoromethyl)-pyrimidin-4-yl]-1,3-thiazol-2-yl]phenyl]methanol]
≤ 100 | ≤ 100 | 100 to 1000 | CC(C)Oc1ncc(-c2nc(NC3CCN(S(C)(=O)=O)CC3)ncc2C(F)(F)F)s1 [Example 25, N-(1-Methylsulfonylpiperidin-4-yl)-4-(2-propan-2-yloxy-1,3-thiazol-5-yl)-5-(trifluoromethyl)pyrimidin-2-amine]
≤ 100 | ≤ 100 | 100 to 1000 | CS(=O)(=O)N1CCC(Nc2ncc(C(F)(F)F)c(-c3cnc(O[C@@H]4CCC[C@H]4O)s3)n2)CC1 [Example 44, (1R,2R)-2-((5-(2-((1-(Methylsulfonyl)piperidin-4-yl)amino)-5-(trifluoromethyl)pyrimidin-4-yl)thiazol-2-yl)oxy)cyclopentanol]
